Among the data in patent US12528812B2 (Genentech, Inc., priority 2020, dated 2026) are IC50 and Ki values, retold here.

The test system of test [1] is EPO-stimulated P-STAT5 in TF-1 human erythroleukemia cells. Briefly: P-STAT5 TF-1 + EPO assay (JAK2 pathway). It is filed as cell-based. Particulars: Homo sapiens, TF-1, TF-1 cells, EPO stimulation; read-out: Cellular JAK2 PSTAT5 TF-1 + EPO. As for the experimental part: (§1) TF-1 human erythroleukemia cells (ATCC′; Manassas, VA; Catalog No. CRL-2003™) were grown in Roswell Park Memorial Institute (RPMI) medium supplemented with 10% heat-inactivated fetal bovine serum (FBS), 2 ng/mL granulocyte-macrophage colony-stimulating factor, 1× non-essential amino acids (NEAA), and 1 mM sodium pyruvate. The day before the assay, the cultures were transferred to Opti-MEM™, 1×NEAA, 1 mM sodium pyruvate, and 0.5% charcoal-stripped FBS (starve medium). Inhibitor stock solutions (5 mM in DMSO) were serially diluted 1:2 in DMSO to generate a 10-point concentration titration (at 500× test concentration), which was further diluted by a 50-fold dilution in Assay Medium (RPMI containing 1×NEAA and 1 mM sodium pyruvate) to generate a 10× concentration titration (in 2% DMSO). The cells (300,000 cells/well in 35 μL of Assay Medium) were seeded in 384-well Greiner plates. Diluted inhibitor at 10× concentration (5 μL) was added to the cells and the plates were incubated for 30 minutes at 37° C. in a humidified incubator. Cells were stimulated with the human recombinant cytokine at the respective EC90 concentrations, as previously determined for each individual lot. For the phosphorylated signal transducer and activator of transcription 6 (P-STAT6) TF-1+Interleukin-13 (IL-13) assay, 10 μL of 250 ng/mL IL-13 (R&D Systems; Minneapolis, MN) was added to the cells, which were then incubated for 10 minutes at 37° C. For the P-STAT5 TF-1+Erythropoietin (EPO) assay, 10 μL of 110 IU/mL EPO (Gibco Life Technologies, Catalog No. PHC2054) was added to the cells, which were then incubated for […] at 37° C. For both assays, the incubation was followed by addition to the cells of 5 μL of ice-cold 10× cell lysis buffer (Cell Signaling Technologies; Danvers, MA; Catalog No. 9803S) containing 1 mM phenylmethylsulfonyl fluoride (PMSF). Assay plates were frozen at −80° C. for a minimum of 1 hour. In the IL-13 assay, P-STAT6 was measured by coating goat anti-rabbit (GAR) plates (Meso Scale Discovery [MSD]; Rockville, MD; Catalog No. MSD L21RA-1) with rabbit anti-human total STAT6 antibody (Cell Signaling Technologies; Catalog No. 9362S), incubating the cell lysates in the coated plates overnight at 4° C., and then detecting with mouse anti-P-STAT6 (Tyr641) Clone 16E12 antibody (MilliporeSigma; Burlington, MA; Catalog No. 05-590, custom labeled by MSD with SULFO-tag) using standard MSD plate processing, washing, and detection protocols. In the EPO assay, P-STAT5 was detected using the phospho-STAT5a,b Whole Cell Lysate Kit (MSD; Catalog No. K150IGD-1). The electrochemiluminescence (ECL) signal of wells was read on the MESO SECTOR 5600 (MSD) reader.
(§2) Data analysis was performed by subtracting the negative control (cytokine stimulated and 20 μM control inhibitor-treated cells) mean ECL value from the ECL value of all wells, determining percent of control for test compound well ECL values relative to the positive control (cytokine stimulated and DMSO-treated cells) mean ECL value, and determining the IC50 for test compounds with a four-parameter logistic fit model as shown in Equation 4.

Test [2] relates to IL-13-stimulated STAT6 phosphorylation in human lung bronchial epithelial BEAS-2B cell line. Briefly: P-STAT6 BEAS-2B + IL-13 cell assay. The format is cell-based. The note with it: Homo sapiens, BEAS-2B, BEAS2B cells, IL13 stimulation; read-out: Cellular JAK1 PSTAT6 BEAS2B + IL13. Summed up:
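BEAS-2B cells grown 48 h at 37 °C, pre-treated 1 h with compound (10-point 1:2 dilution curve), then stimulated 15 min with human recombinant IL-13 (250 ng/mL stock). Lysate P-STAT6 (Tyr641) read by MSD sandwich ELISA with total-STAT6 capture; IC50 from four-parameter logistic fit of control-normalised data.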

Test [3] addresses T1, recombinant human JAK1 kinase domain protein (Residues 854-1154) (Homo sapiens, UniProt P23458).
T1 construct: human JAK1 kinase domain protein (Residues 854-1154); purchased Proteros Biostructures GmbH (Martinsried, Germany); host or cells: insect cells
Briefly: JAK1 biochemical assay (LabChip mobility shift, Ki). Particulars: read-out: Biochem JAK1 Ki.

Test [4] concerns the target Recombinant human JAK2 kinase domain protein (Residues 812-1132) (Homo sapiens, UniProt O60674). Briefly: JAK2 biochemical assay (LabChip mobility shift, Ki). The note with it: Biochem JAK2 Ki.
Description: The in vitro biochemical assays quantify JAK-catalyzed phosphorylation of a synthetic peptide, as detected using a LabChip® EZ Reader II microfluidic mobility shift instrument (PerkinElmer; Waltham, MA). […] Y-1B is fluorescently labeled on the N-terminus with 5-FAM (5-carboxyfluorescein) and contains a single tyrosine residue (Y) that can be phosphorylated by JAK activity. The substrate peptide stock is prepared in DMSO at 5 mM. […] In each titration experiment, test compound was tested in duplicate at each of the twelve concentrations. Blank reactions contained ATP, peptide, and DMSO, but no JAK or test compound, whereas uninhibited control reactions contained ATP, peptide, JAK, and DMSO, but no test compound.
Peptide plus ATP mixture (24 μL) was added to 1 μL of test compound in DMSO (or DMSO alone). The reactions were initiated by adding 25 μL of JAK enzyme to the inhibitor/peptide/ATP mixture before thoroughly mixing the resultant solution. Reactions were incubated at room temperature (22° C.-23° C.) in a final volume of 50 μL per well in 384-well plates. After a 30-minute incubation, the reactions were stopped by adding 25 μL of 150 mM ethylenediaminetetraacetic acid in 100 mM HEPES buffer (pH 7.2) containing 0.015% Brij 35 to each well.
In each reaction, the residual Y-1B substrate and the phospho-peptide product generated were separated using the EZ Reader II instrument. Electrophoretic separation of molecules of product from molecules of substrate was achieved using downstream and upstream voltages of −500 and −2600 V, respectively, at an operating pressure of −1.3 psi.
The extent (or percent) of conversion of substrate to product was calculated from the corresponding peak heights in the electropherogram using HTS Well Analyzer software, Version 5.2 (PerkinElmer), and the following equation (Equation 1): conversion=[P÷(S+P)]×100 Equation 1% where S and P represent the peak heights of the substrate and product, respectively. After any baseline signal from blank wells containing no JAK was subtracted from the signal of all test wells, the % conversion data were converted to fractional activity as shown in Equation 2, where vi and vo are the % conversion in the presence and absence of test compound, respectively.
Test [5] concerns IL-13-stimulated P-STAT6 in TF-1 human erythroleukemia cells. Briefly: P-STAT6 TF-1 + IL-13 assay (JAK1 pathway). The note with it: Homo sapiens, TF-1, TF-1 cells, IL13 stimulation; read-out: Cellular JAK1 PSTAT6 TF-1 + IL13. It is filed as cell-based. Here is the method:
as §1, §2

T1 sequence (P23458 854-1154): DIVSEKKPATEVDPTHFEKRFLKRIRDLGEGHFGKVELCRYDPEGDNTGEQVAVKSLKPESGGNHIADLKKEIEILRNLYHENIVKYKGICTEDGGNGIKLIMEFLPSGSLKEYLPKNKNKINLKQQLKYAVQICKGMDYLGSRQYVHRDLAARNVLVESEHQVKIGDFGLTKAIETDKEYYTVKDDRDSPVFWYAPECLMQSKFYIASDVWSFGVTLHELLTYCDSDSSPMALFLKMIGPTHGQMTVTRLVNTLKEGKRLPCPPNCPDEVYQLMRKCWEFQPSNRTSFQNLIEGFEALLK
Recombinant human JAK2 kinase domain protein (Residues 812-1132), sequence (O60674 812-1132): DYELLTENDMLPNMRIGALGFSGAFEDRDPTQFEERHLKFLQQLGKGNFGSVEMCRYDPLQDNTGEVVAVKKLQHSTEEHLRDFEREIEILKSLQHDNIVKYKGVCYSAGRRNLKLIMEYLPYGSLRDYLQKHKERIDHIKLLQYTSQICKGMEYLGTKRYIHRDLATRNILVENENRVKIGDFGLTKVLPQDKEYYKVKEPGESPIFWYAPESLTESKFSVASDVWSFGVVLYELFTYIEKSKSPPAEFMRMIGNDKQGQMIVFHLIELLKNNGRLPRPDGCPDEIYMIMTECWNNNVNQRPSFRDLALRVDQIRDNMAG

In the case of `Cn1cc(NC(=O)c2cnn3cccnc23)c(-c2cc(Oc3cn[nH]c3)ccc2OC(F)F)n1` [Example 160, N-[3-[2-(difluoromethoxy)-5-(1H-pyrazol-4-yloxy)phenyl]-1-methyl-pyrazol-4-yl]pyrazolo[1,5-a]pyrimidine-3-carboxamide], the figures for the IC50 in test [1], in test [2] and in test [5] were 3.6 nM, 8.3 nM and 2.1 nM, respectively. The Ki in test [3] came to 0.1 nM; in test [4] it was 0.07 nM.

As to `O=C(Nc1c[nH]nc1-c1cc(Oc2cn[nH]c2)ccc1OC(F)F)c1cnn2cccnc12` [Example 173, N-[3-[2-(difluoromethoxy)-5-(1H-pyrazol-4-yloxy)phenyl]-1H-pyrazol-4-yl]pyrazolo[1,5-a]pyrimidine-3-carboxamide], the IC50 in test [1] amounted to 68 nM; in test [2], 82 nM; in test [5], 24 nM. In addition, the Ki in test [3] stood at 0.13 nM; in test [4], 0.076 nM.

What is called Ki is the dissociation constant of the complex between target and ligand, obtained from inhibition or displacement.
